Data reported in article PMC10744269, “Frentizole, a Nontoxic Immunosuppressive Drug, and Its Analogs Display Antitumor Activity via Tubulin Inhibition” (International Journal of Molecular Sciences, 2023).

Key:
[1] = tested on: HeLa (cervix epithelioid carcinoma cells); test: MTT antiproliferative assay, HeLa; format: cell-based, human; conditions: Homo sapiens, HeLa, 72 h after drug treatment, threshold 10 μM
Experimental: (§1) The cell proliferation inhibitory activity of frentizole and the synthesized analogs 2–10 against representative human cancer cell lines was assayed using the MTT method (Table 1). […] For those compounds inhibiting cell proliferation by more than 40% with respect to the untreated controls at the threshold concentration, the IC50 values were calculated by measuring the proliferation inhibition in a range of concentrations from 100 to 0.001 μM and adjusting the resulting curves to sigmoidal dose–response curves. The selected cell lines were HeLa (cervix epithelioid carcinoma cells), one of the most frequent kinds of cancer, with good sensitivity against antimitotic agents, and the glioblastoma cell lines U87MG and A172. To study the selectivity of the compounds toward cancer cells versus nontumor cells, the compounds were also evaluated against the nontumorigenic cell line HEK-293 (human embryonic kidney cells) and the murine macrophage cell line J774. Sulfonamide ABT-751, as a representative of the colchicine-site ligands, and the first-line drug for the treatment of glioblastoma multiforme temozolomide (TMZ) were used as reference compounds.
(§2) The cell lines were from ATTC (Manassas, VA, USA). HeLa (human cervix epithelioid carcinoma), U87 MG (human glioblastoma), A172 (human glioblastoma), and HEK-293 (human embryonic kidney) were grown in Dulbecco’s modified Eagle’s medium (DMEM, Gibco, Waltham, MA, USA), supplemented with 10% (v/v) heat-inactivated fetal bovine serum (HIFBS, Sigma-Aldrich, St. Louis, MO, USA), 2 mM L-glutamine, 100 μg/mL streptomycin, and 100 units/mL penicillin (Gibco, Waltham, MA, USA) at 37 °C in humidified 95% air and 5% CO2. The cells were periodically tested for Mycoplasma infection using MycoAlert kit (Lonza, Norwest, Australia), and only mycoplasma-free cells were employed in the experiments.
(§3) The effect of the compounds on the proliferation of human tumor cell lines was determined as previously described using the MTT reagent 3-[4,5-dimethylthiazol-2-yl]-2,5-diphenyltetrazolium bromide, MTT Thiazolyl Blue Tetrazolium Bromide, Sigma-Aldrich, St. Louis, MO, USA) dissolved in PBS at 5 mg/mL, according to the manufacturer’s instructions. The cells were incubated in 96-well plates (100 μL/well), in complete DMEM or RPMI 1640 medium (see above), at 37 °C and 5% CO2 atmosphere for 24 h to allow for cell attachment to the plate at the following concentrations: 30,000 cells/mL (U87MG, A172, J774, and HEK-293 cells) or 15,000 cells/mL (HeLa cells). Then, every compound was added (10 μL/well) to a final concentration of 10 μM. Untreated cells were used as negative controls. The antiproliferative activity of the compounds was measured 72 h after drug exposure using the MTT assay. The IC50 value (the drug concentration required to inhibit 50% of the cell growth in respect the untreated control) was determined for those compounds showing antiproliferative effects in the initial screening at 10 μM. For this purpose, the compounds were used at different concentrations ranging from 10^−10 to […]. Measurements were performed in triplicate and each experiment was repeated three times. The IC50 values were determined using Origin software (OriginLab, Washington, DC, USA).

[2] = tested on: A172 (human glioblastoma); test: MTT antiproliferative assay, A-172; format: cell-based; conditions: 72 h after drug treatment, threshold 10 μM
Experimental: as §1, §2, §3

[3] = tested on: U87 MG (human glioblastoma); test: MTT antiproliferative assay, U-87 MG; format: cell-based; conditions: 72 h after drug treatment, threshold 10 μM
Experimental: as §1, §2, §3

[4] = tested on: nontumorigenic cell line HEK-293 (human embryonic kidney cells); test: MTT antiproliferative assay, HEK-293; format: cell-based; conditions: HEK293, 72 h after drug treatment, threshold 10 μM
Experimental: as §1, §2, §3

[5] = tested on: murine macrophage cell line J774; test: MTT antiproliferative assay, J774; format: cell-based; conditions: Mus musculus, 72 h after drug treatment, threshold 10 μM, read-out: IC50 J-774
Experimental: as §1, §3

Row | Structure (SMILES) | IC50 [1] | IC50 [2] | IC50 [3] | IC50 [4] | IC50 [5] | melting point
1 | CCNC(=O)Nc1nc2cc(C)c(C)cc2s1 [Compound 5c, 1-(5,6-Dimethylbenzo[d]thiazol-2-yl)-3-ethylurea] | > 10 µM | > 10 µM | > 10 µM | > 10 µM | > 10 µM | 
2 | Cc1ccc2nc(NC(=O)OCc3ccccc3)sc2c1 [Compound 10a, Benzyl (6-methylbenzo[d]thiazol-2-yl)carbamate] | > 10 µM | > 10 µM | > 10 µM | > 10 µM |  | 254 to 255 °C
3 | Cc1ccc2nc(NC(=O)Oc3ccccc3)sc2c1 [Compound 9a, Phenyl (6-methylbenzo[d]thiazol-2-yl)carbamate] | > 10 µM | > 10 µM | > 10 µM | > 10 µM | > 10 µM | 251 to 253 °C
4 | CCOC(=O)Nc1nc2c(Br)cc(C)cc2s1 [Compound 8b, Ethyl (4-bromo-6-methylbenzo[d]thiazol-2-yl)carbamate] | > 10 µM | > 10 µM | > 10 µM | > 10 µM | > 10 µM | 177 to 178 °C
5 | CCNC(=O)Nc1nc2ccc(C)cc2s1 [Compound 5a, 1-Ethyl-3-(6-methylbenzo[d]thiazol-2-yl)urea] | > 10 µM | > 10 µM | > 10 µM | > 10 µM | > 10 µM | 312 to 313 °C
6 | Cc1cc2nc(NC(=O)Nc3ccccc3)sc2cc1C [Compound 6c, 1-(5,6-Dimethylbenzo[d]thiazol-2-yl)-3-phenylurea] | > 10 µM | > 10 µM | > 10 µM | > 10 µM | 0.27 µM | > 290 °C
7 | Cc1ccc2nc(NC(=O)NCc3ccccc3)sc2c1 [Compound 7a, 1-Benzyl-3-(6-methylbenzo[d]thiazol-2-yl)urea] | > 10 µM | > 10 µM | > 10 µM | > 10 µM | > 10 µM | 283.4 to 285.7 °C
8 | Cc1cc2nc(NC(=O)c3ccccc3)sc2cc1C [Compound 3c, N-(5,6-dimethylbenzo[d]thiazol-2-yl)benzamide] | > 10 µM | > 10 µM | > 10 µM | 5.68 µM | 7.73 µM | 210 °C
9 | CCOC(=O)Nc1nc2ccc(C)cc2s1 [Compound 8a, Ethyl (6-methylbenzo[d]thiazol-2-yl)carbamate] | > 10 µM | > 10 µM | > 10 µM | > 10 µM | 0.26 µM | 252.8 to 254 °C
10 | Cc1ccc2nc(NC(=O)c3ccccc3)sc2c1 [Compound 3a, N-(6-methylbenzo[d]thiazol-2-yl)benzamide] | > 10 µM | > 10 µM | > 10 µM | > 10 µM | > 10 µM | 222 to 224 °C
11 | Cc1cc2nc(N(C)C(=O)Nc3ccccc3)sc2cc1C [Compound 6ca, 1-(5,6-Dimethylbenzo[d]thiazol-2-yl)-1-methyl-3-phenylurea] | > 10 µM | > 10 µM | > 10 µM | > 10 µM | > 10 µM | 179 °C
12 | Cc1cc(Br)c2nc(NC(=O)NCc3ccccc3)sc2c1 [Compound 7b, 1-Benzyl-3-(4-bromo-6-methylbenzo[d]thiazol-2-yl)urea] | > 10 µM | > 10 µM | > 10 µM | > 10 µM | > 10 µM | 
13 | Cc1cc2nc(N(C)C(=O)c3ccccc3)sc2cc1C [Compound 3ca, N-(5,6-dimethylbenzo[d]thiazol-2-yl)-N-methylbenzamide] | > 10 µM | > 10 µM | > 10 µM | > 10 µM | > 10 µM | 231 °C
14 | Cc1cc(Br)c2nc(NC(=O)Nc3ccccc3)sc2c1 [Compound 6b] | > 10 µM | > 10 µM | > 10 µM | > 10 µM | > 10 µM | 
15 | COc1ccc2nc(N(C)C(=O)Nc3ccccc3)sc2c1 [Compound 6ea, 1-(6-Methoxybenzo[d]thiazol-2-yl)-1-methyl-3-phenylurea] | > 10 µM | > 10 µM | > 10 µM | > 10 µM | > 10 µM | 189 °C
16 | CCNC(=O)Nc1nc2ccc(OC)cc2s1 [Compound 5e, 1-Ethyl-3-(6-methoxybenzo[d]thiazol-2-yl)urea] | > 10 µM | > 10 µM | > 10 µM | > 10 µM | > 10 µM | 
17 | Cc1ccc2nc(NC(=O)Nc3ccccc3)sc2c1 [Compound 6a, 1-(6-Methylbenzo[d]thiazol-2-yl)-3-phenylurea] | > 10 µM | > 10 µM | > 10 µM | > 10 µM | 1.97 µM | 327 to 329 °C
18 | Cc1ccc2nc(NC(=O)Cc3ccccc3)sc2c1 [Compound 4a, N-(6-methylbenzo[d]thiazol-2-yl)-2-phenylacetamide] | > 10 µM | > 10 µM | > 10 µM | > 10 µM | > 10 µM | 190 to 191 °C
19 | COc1ccc2nc(NC(=O)c3ccccc3)sc2c1 [Compound 3e, N-(6-methoxybenzo[d]thiazol-2-yl)benzamide] | > 10 µM | > 10 µM | > 10 µM | > 10 µM | > 10 µM | 
20 | Cc1cc(Br)c2c(c1)SC(NC(=O)Oc1ccccc1)N2C(=O)Oc1ccccc1 (stereo not drawn) [Compound 9b, Phenyl (4-bromo-6-methyl-N-phenoxycarbonylbenzo[d]thiazol-2-yl)carbamate] |  |  |  |  |  | 100 °C
21 | Cc1cc(Br)c2nc(NC(=O)OCc3ccccc3)sc2c1 [Compound 10b] | > 10 µM | > 10 µM | > 10 µM | > 10 µM | > 10 µM | 
